What follows are compounds tested against T1, HDAC8 (Homo sapiens, UniProt Q9BY41) (assay: Kinetic parameters of inactivation from time-dependent IC50). Settings: HDAC8, inactivation constant.
T1 construct: one additional N-terminal residue 'H' (His) (N)
T1 sequence (Q9BY41 1-377): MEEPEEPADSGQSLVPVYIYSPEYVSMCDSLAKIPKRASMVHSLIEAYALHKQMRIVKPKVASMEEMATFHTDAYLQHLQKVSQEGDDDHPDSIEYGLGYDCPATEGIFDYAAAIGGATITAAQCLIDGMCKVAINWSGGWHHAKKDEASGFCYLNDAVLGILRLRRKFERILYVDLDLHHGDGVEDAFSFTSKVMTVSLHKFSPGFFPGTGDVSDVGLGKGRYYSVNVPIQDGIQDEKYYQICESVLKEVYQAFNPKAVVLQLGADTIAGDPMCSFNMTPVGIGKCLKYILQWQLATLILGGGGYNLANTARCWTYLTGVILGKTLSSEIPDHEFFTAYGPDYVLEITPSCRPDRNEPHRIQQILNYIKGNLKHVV
Format: biochemical
Procedure: Time-dependent IC50 values were obtained using the previously described enzyme activity assay after varying preincubation times.

SMILES	Ki [µM]
C#Cc1ccc[n+](C)c1 [B6+]	0.8

The compounds below were run on THP-1 cells (assay: CellTiter-Blue cell viability assay). Settings: Homo sapiens, 72 h, Figure 7A, read-out: cell viability IC50, THP-1.
Format: cell-based
Procedure: All cell lines were purchased from DSMZ (Braunschweig, Germany). The cell lines were regularly tested to exclude mycoplasma contamination and authenticated. […] Media were supplemented with 10% fetal calf serum (FCS), 10 units/mL penicillin, 10 μg/mL streptomycin, and 2 mM L-glutamine (all Gibco, Thermo Fisher Scientific).
To determine the IC50 of the selected compounds on the cell lines, the CellTiter-Blue cell viability assay (Promega) was performed. For this, cells were seeded in 96-well flat-bottom plates at a cell density of 10 000 cells/well. Cells were treated in triplicate with the compound of interest at various concentrations or with 10 μM Bortezomib (S1013; Selleck Chemicals, Houston, TX), as a positive control. […] Plates were measured using a GloMax plate reader (Promega), and IC50 values were determined by nonlinear regression using GraphPad Prism version 9.1.1 (GraphPad Software, Inc.), and the data are reported as mean values ± the standard error of the mean.

SMILES	IC50 [µM]
C#Cc1cnccc1NC(=O)CC(=O)N1Cc2ccccc2C1 [compound 11, N-(3-Ethynylpyridin-4-yl)-3-(isoindolin-2-yl)-3-oxopropanamide]	> 500

Each compound was assayed against HDAC8 WT (Homo sapiens, UniProt Q9BY41) (assay: Dilution/dialysis reversibility experiment). Settings: 2000-fold dilution by overnight dialysis.
Format: biochemical

SMILES	reversibility of covalent binding
C#Cc1ccc[n+](C)c1 [B6+]	irreversible

These compounds were tested on GSH (glutathione) (assay: physchem). Settings: PBS buffer with 5 mM glutathione (GSH), pH 7.4.
Procedure: The AUC (area under the curve) values were determined via integration of HPLC or MS chromatograms and then corrected with the internal standard. The fragments’ AUC values were subjected to ordinary least-squares (OLS) linear regression, and to compute the important parameters (kinetic rate constant and half-life time), an Excel sheet was applied. The data are expressed as means of duplicate determinations. The kinetic rate constant for the degradation and corrected GSH reactivity were calculated as follows. The reaction half-life for pseudo-first-order reactions (t1/2) is ln 2/k, where k is the reaction rate. In the case of competing reactions (reaction with GSH and degradation), the apparent reaction rate is kapp = kdeg + kGSH. When half-lives are measured experimentally, t1/2(app) = ln 2/(kapp) = ln 2/(kdeg + kGSH). In our case, the corrected kdeg and kapp (regarding blank and GSH-containing samples, respectively) can be calculated by linear regression of the measured kinetic data points. The corrected kGSH is calculated as kapp – kdeg, and finally, the half-life is determined using the equation t1/2 = ln 2/k.

SMILES	half-life at 250 μM [h]
Clc1ncc[nH]1 [H1]	> 48
Brc1ncc[nH]1 [H2]	> 48
Ic1ncc[nH]1 [H3]	0.16
Clc1c[nH]cn1 [J1]	> 48
Brc1c[nH]cn1 [J2]	> 48
Ic1c[nH]cn1 [J3]	> 48
Brc1ccn[nH]1 [K2]	> 48
Ic1ccn[nH]1 [K3]	> 48
Clc1cn[nH]c1 [L1]	> 48
Brc1cn[nH]c1 [L2]	> 48
Ic1cn[nH]c1 [L3]	> 48
Ic1ncco1 [N3]	0.23
Brc1cncs1 [Q2]	> 48
Brc1nccs1 [R2]	> 48

Same assay, conditions: buffer, pH 7.4

SMILES	half-life at 250 μM [h]
N#Cc1ccccn1 [A4]	> 48
Cn1cc[n+](C)c1C#N [H4+]	> 48

What follows are compounds tested on HL60 cells (assay: CellTiter-Blue cell viability assay). Settings: Homo sapiens, HL-60; 72 h, Figure 7A.
Format: cell-based
Procedure: All cell lines were purchased from DSMZ (Braunschweig, Germany). The cell lines were regularly tested to exclude mycoplasma contamination and authenticated. Cell lines were grown at 37 °C and 5% CO2 in RPMI 1640 medium (Gibco, Thermo Fisher Scientific). Media were supplemented with 10% fetal calf serum (FCS), 10 units/mL penicillin, 10 μg/mL streptomycin, and 2 mM L-glutamine (all Gibco, Thermo Fisher Scientific).
To determine the IC50 of the selected compounds on the cell lines, the CellTiter-Blue cell viability assay (Promega) was performed. For this, cells were seeded in 96-well flat-bottom plates at a cell density of 10 000 cells/well. Cells were treated in triplicate with the compound of interest at various concentrations or with 10 μM Bortezomib (S1013; Selleck Chemicals, Houston, TX), as a positive control. The cell viability of treated cell lines was measured using CellTiter-Blue after incubation for 72 h. Plates were measured using a GloMax plate reader (Promega), and IC50 values were determined by nonlinear regression using GraphPad Prism version 9.1.1 (GraphPad Software, Inc.), and the data are reported as mean values ± the standard error of the mean.

SMILES	IC50 [µM]
C#Cc1cnccc1NC(=O)CC(=O)N1Cc2ccccc2C1 [compound 11, N-(3-Ethynylpyridin-4-yl)-3-(isoindolin-2-yl)-3-oxopropanamide]	> 500

What follows are compounds tested on SMC3 acetylation (assay: Western blot (immunoblot) in OCI-AML3 cells). Settings: 72 h treatment.
Format: cell-based
Procedure: Cells (2 ×10^6) were seeded in 2 mL of medium in a six-well plate (Greiner) and treated with the desired concentration of the compounds. […] Protein concentrations were determined by the Bradford protein assay. Thirty micrograms of cell lysates per treatment was fractionated on sodium dodecyl sulfate–polyacrylamide gels and transferred to nitrocellulose membranes (Cytiva).

SMILES	effect on HDAC8 levels
C#Cc1ccc[n+](C)c1 [B6+]	not influencing HDAC8 levels
